The structures appear in SMILES notation.

Results on 3 compounds are retold here after ChEMBL document CHEMBL1128609, “Chemical synthesis and biological evaluation of 1d-1,2,4,5-InsP4 and its 3-fluorinated counterpart 1d-3-F-1,2,4,5-InsP4 potent 1d-1,4,5-InsP3-like calcium mobilizing analogues” (Bioorg Med Chem Lett, 1995).

A short description of test [1]: Effective concentration required for Calcium release via the intracellular InsP3 receptor of SH-SY5Y cells. The format is functional, cell-based. The following applies: Homo sapiens.
Test [2] in a line: Inhibitory concentration required to displace [3H]insP3 from Inositol 1,4,5-trisphosphate receptor of bovine adrenal cortex membranes. The test is classed as tissue-based.

The term EC50 denotes the concentration needed to bring the measured effect to its halfway point. As a reminder, the IC50 is the midpoint of a concentration-inhibition curve. Read a high IC50 as weaker potency. Regarding `O=P(O)(O)OC1C(O)C(O)C(OP(=O)(O)O)C(OP(=O)(O)O)C1F` (stereo unspecified), the EC50 in test [1] is 5420 nM. The IC50 in test [2] was determined as 269 nM.
For `O=P(O)(O)OC1C(O)C(OP(=O)(O)O)C(OP(=O)(O)O)C(F)C1OP(=O)(O)O` (stereo unspecified), in that order: 100 nM and 9.7 nM.
In the same order, the values of `O=P(O)(O)O[C@@H]1[C@H](O)[C@H](O)[C@@H](OP(=O)(O)O)[C@H](OP(=O)(O)O)[C@H]1O` [INS(1,4,5)P3] are 51.6 nM and 5.5 nM.
